Laboratory results from patent publication US20060286040A1, “Medicament compositions comprising a heterocyclic compound and an anticholinergic” (Kyowa Hakko Kogyo Co., Ltd., priority 2003, published 2006).

System: guinea pig main bronchus
Test: EFS-induced cholinergic and tachykininergic contraction in the guinea pig main bronchus (organ bath)
Conditions: for Cholinergic Contraction, % of the first contraction / Tachykininergic contraction, % of the first contraction: EFS 30 V, 0.5 ms, 8 Hz, 15 s, 10 nmol/L tiotropium bromide and/or 30 μmol/L Compound 2, measured 20 min after addition, indomethacin 5 μmol/L, means ± S.E.M
[1] = 10 nmol/L tiotropium bromide and/or 30 μmol/L Compound 2, 20 min after addition

Row | Molecule | Effect on EFS-induced tachykininergic contraction (in words) [1] | Cholinergic Contraction, % of the first contraction | Tachykininergic contraction, % of the first contraction | Effect on EFS-induced cholinergic contraction (in words) [1]
1 | COc1ccc(C(=O)Cc2c(Cl)cncc2Cl)c2c1OC1(CCCC1)O2 [Compound 2] | inhibited the tachykininergic contraction | 105.8 ± 2.4 % of the first contraction | 66.1 ± 6.5 % of the first contraction | 
2 | tiotropium bromide |  | 59.7 ± 6.3 % of the first contraction | 90.9 ± 8.3 % of the first contraction | inhibited the cholinergic contraction
